Results: PubChem BioAssay AID248 (DTP/NCI, 2004)
Inconclusive results and toxic doses are left out. No stated cut-off is given here; in the data, active means T/C of 150% or more; inactive means T/C below 125%.

System: L1210 leukemia ip in BDF1 mice, survival T/C
Assay: NCI In Vivo Anticancer Drug Screen. Data for tumor model L1210 Leukemia (intraperitoneal) in B6D2F1 (BDF1) mice
Settings: endpoint: mean survival time, higher = longer survival
How it was run: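 Read-out is survival time, reported as the treated-group measurement over the vehicle-control measurement.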

[1] = dose: 100.0 mg/kg/injection, schedule: Q01DX001 (ip), vehicle: saline
[2] = dose: 100.0 mg/kg/injection, schedule: Q04DX003 (ip), vehicle: saline
[3] = dose: 200.0 mg/kg/injection, schedule: Q01DX001 (ip), vehicle: saline
[4] = dose: 200.0 mg/kg/injection, schedule: Q04DX003 (ip), vehicle: saline
[5] = dose: 400.0 mg/kg/injection, schedule: Q01DX001 (ip), vehicle: saline
[6] = dose: 400.0 mg/kg/injection, schedule: Q04DX003 (ip), vehicle: saline
[7] = dose: 100.0 mg/kg/injection, schedule: Q04DX003 (ip), vehicle: Klucel (hydroxypropylcellulose) (HPC)
[8] = dose: 200.0 mg/kg/injection, schedule: Q04DX003 (ip), vehicle: Klucel (hydroxypropylcellulose) (HPC)
[9] = dose: 400.0 mg/kg/injection, schedule: Q04DX003 (ip), vehicle: Klucel (hydroxypropylcellulose) (HPC)
[10] = dose: 100.0 mg/kg/injection, schedule: Q01DX009 (ip), vehicle: Klucel (hydroxypropylcellulose) (HPC)
[11] = dose: 200.0 mg/kg/injection, schedule: Q01DX009 (ip), vehicle: Klucel (hydroxypropylcellulose) (HPC)
[12] = dose: 400.0 mg/kg/injection, schedule: Q01DX009 (ip), vehicle: Klucel (hydroxypropylcellulose) (HPC)
[13] = dose: 100.0 mg/kg/injection, schedule: Q01DX009 (ip), vehicle: saline with Tween-80
[14] = dose: 200.0 mg/kg/injection, schedule: Q01DX009 (ip), vehicle: saline with Tween-80
[15] = dose: 400.0 mg/kg/injection, schedule: Q01DX009 (ip), vehicle: saline with Tween-80

Measured: T/C

CC1(C)CC2(C)CC(=O)C1C(C(=O)O)C2C(=O)O (stereo not drawn)
inactive: [1] 98 % of control | dose: 100.0 mg/kg/injection, schedule: Q01DX009 (ip), vehicle: saline 93 % of control | [2] 96 % of control | [3] 90 % of control | dose: 200.0 mg/kg/injection, schedule: Q01DX009 (ip), vehicle: saline 93 % of control | [4] 91 % of control | [5] 91 % of control | dose: 400.0 mg/kg/injection, schedule: Q01DX009 (ip), vehicle: saline 92 % of control | [6] 89 % of control

COC(C(C)C)[CH]1[Hg][O]C1=O (stereo not drawn)
inactive: dose: 0.5 mg/kg/injection, schedule: Q01DX001 (ip), vehicle: steriod suspending solution 103 % of control | dose: 1.0 mg/kg/injection, schedule: Q01DX001 (ip), vehicle: steriod suspending solution 108 % of control | dose: 2.0 mg/kg/injection, schedule: Q01DX001 (ip), vehicle: steriod suspending solution 111 % of control

BrC[Si](c1ccccc1)(c1ccccc1)c1ccccc1
inactive: dose: 100.0 mg/kg/injection, schedule: Q04DX002 (ip), vehicle: saline with Tween-80 96 % of control | dose: 200.0 mg/kg/injection, schedule: Q04DX002 (ip), vehicle: saline with Tween-80 96 % of control | dose: 400.0 mg/kg/injection, schedule: Q04DX002 (ip), vehicle: saline with Tween-80 92 % of control

COc1cc(N(CCCl)CCCl)c(OC)cc1/C=N\Nc1nnc(C)n1N
active: dose: 10.0 mg/kg/injection, schedule: Q01DX015 (ip), vehicle: carboxymethylcellulose (CMC) 155 % of control | dose: 100.0 mg/kg/injection, schedule: Q01DX001 (ip), vehicle: carboxymethylcellulose (CMC) 161 % of control
inactive: dose: 2.5 mg/kg/injection, schedule: Q01DX015 (ip), vehicle: carboxymethylcellulose (CMC) 115 % of control | dose: 5.0 mg/kg/injection, schedule: Q01DX015 (ip), vehicle: carboxymethylcellulose (CMC) 121 % of control | dose: 30.0 mg/kg/injection, schedule: Q01DX015 (ip), vehicle: carboxymethylcellulose (CMC) 103 % of control | dose: 44.0 mg/kg/injection, schedule: Q01DX001 (ip), vehicle: carboxymethylcellulose (CMC) 103 % of control | dose: 50.0 mg/kg/injection, schedule: Q01DX001 (ip), vehicle: carboxymethylcellulose (CMC) 120 % of control | dose: 67.0 mg/kg/injection, schedule: Q01DX001 (ip), vehicle: carboxymethylcellulose (CMC) 115 % of control | dose: 400.0 mg/kg/injection, schedule: Q01DX001 (ip), vehicle: carboxymethylcellulose (CMC) 97 % of control

c1ccc(N=C2C3CCN(CC3)C2C(c2ccccc2)c2ccccc2)cc1 (stereo not drawn)
inactive: [7] 97 % of control | [8] 94 % of control | [9] 95 % of control

O=c1cc(C23CC4CC(CC(C4)C2)C3)[nH]c(=S)[nH]1
inactive: dose: 100.0 mg/kg/injection, schedule: Q01DX001 (ip), vehicle: saline with Tween-80 92 % of control | dose: 200.0 mg/kg/injection, schedule: Q01DX001 (ip), vehicle: saline with Tween-80 108 % of control | dose: 400.0 mg/kg/injection, schedule: Q01DX001 (ip), vehicle: saline with Tween-80 94 % of control

CC(=O)c1cccc2ccccc12
inactive: dose: 25.0 mg/kg/injection, schedule: Q04DX002 (ip), vehicle: Klucel (hydroxypropylcellulose) (HPC) 103 % of control | dose: 50.0 mg/kg/injection, schedule: Q04DX002 (ip), vehicle: Klucel (hydroxypropylcellulose) (HPC) 100 % of control | dose: 100.0 mg/kg/injection, schedule: Q04DX002 (ip), vehicle: Klucel (hydroxypropylcellulose) (HPC) 103 % of control

CCOC(=O)CNc1ccc(C(=O)OCC)s1
inactive: dose: 31.25 mg/kg/injection, schedule: Q01DX009 (ip), vehicle: acetone 98 % of control | dose: 62.5 mg/kg/injection, schedule: Q01DX009 (ip), vehicle: acetone 100 % of control | dose: 125.0 mg/kg/injection, schedule: Q01DX009 (ip), vehicle: acetone 96 % of control | dose: 190.0 mg/kg/injection, schedule: Q01DX009 (ip), vehicle: saline 94 % of control | dose: 285.0 mg/kg/injection, schedule: Q01DX009 (ip), vehicle: saline 88 % of control

O=C(O)COc1ccc(/C=C/c2ccnc3ccccc23)cc1
inactive: [10] 94 % of control | [11] 99 % of control | [12] 86 % of control

Cn1c[n+](-c2ccccc2)c([S-])n1
inactive: [1] 101 % of control | [3] 101 % of control | [5] 100 % of control

CCC(C(N)=O)C1=CCCCC1 (stereo not drawn)
inactive: [13] 95 % of control | [14] 93 % of control | [15] 98 % of control

N/C(=N/N=C/c1ccc(O)cc1)N[N+](=O)[O-]
inactive: [13] 105 % of control | [14] 89 % of control | [15] 90 % of control

COC(=O)c1[nH]c(=O)[nH]c(=O)c1F
active: dose: 3.0 mg/kg/injection, schedule: Q01DX Z (ip), vehicle: methylcellulose (MC) 151 % of control | dose: 5.0 mg/kg/injection, schedule: Q01DX Z (ip), vehicle: carboxymethylcellulose (CMC) 185 % of control | dose: 6.0 mg/kg/injection, schedule: Q01DX Z (ip), vehicle: methylcellulose (MC) 172 % of control | dose: 8.0 mg/kg/injection, schedule: Q01DX009 (ip), vehicle: saline with Tween-80 167 % of control | dose: 8.0 mg/kg/injection, schedule: Q01DX Z (ip), vehicle: carboxymethylcellulose (CMC) 150 % of control | dose: 32.0 mg/kg/injection, schedule: Q04DX003 (ip), vehicle: saline with Tween-80 157 % of control | dose: 64.0 mg/kg/injection, schedule: Q04DX003 (ip), vehicle: saline with Tween-80 215 % of control
inactive: dose: 1.0 mg/kg/injection, schedule: Q01DX009 (ip), vehicle: saline with Tween-80 103 % of control | dose: 1.0 mg/kg/injection, schedule: Q01DX Z (ip), vehicle: methylcellulose (MC) 115 % of control | dose: 2.0 mg/kg/injection, schedule: Q01DX009 (ip), vehicle: saline with Tween-80 110 % of control | dose: 2.0 mg/kg/injection, schedule: Q01DX Z (ip), vehicle: carboxymethylcellulose (CMC) 118 % of control | dose: 3.0 mg/kg/injection, schedule: Q01DX Z (ip), vehicle: carboxymethylcellulose (CMC) 124 % of control | dose: 4.0 mg/kg/injection, schedule: Q01DX009 (ip), vehicle: saline with Tween-80 123 % of control | dose: 17.0 mg/kg/injection, schedule: Q01DX Z (ip), vehicle: carboxymethylcellulose (CMC) 97 % of control | dose: 24.0 mg/kg/injection, schedule: Q01DX Z (ip), vehicle: methylcellulose (MC) 114 % of control | dose: 25.0 mg/kg/injection, schedule: Q01DX Z (ip), vehicle: carboxymethylcellulose (CMC) 120 % of control | dose: 32.0 mg/kg/injection, schedule: Q01DX009 (ip), vehicle: saline with Tween-80 92 % of control | dose: 38.0 mg/kg/injection, schedule: Q01DX Z (ip), vehicle: carboxymethylcellulose (CMC) 101 % of control | dose: 48.0 mg/kg/injection, schedule: Q01DX Z (ip), vehicle: methylcellulose (MC) 114 % of control | dose: 90.0 mg/kg/injection, schedule: Q01DX Z (ip), vehicle: methylcellulose (MC) 91 % of control

CC(C)NC(=O)NS(=O)(=O)c1ccc(N)cc1
inactive: [2] 94 % of control | [4] 103 % of control | [6] 110 % of control

CCOC(=O)CCCN(c1ccccc1CC(=O)OCC)S(C)(=O)=O
inactive: [10] 103 % of control | [7] 102 % of control | [11] 94 % of control | [8] 112 % of control | [12] 97 % of control | [9] 100 % of control

CN1C(=O)CN=C(c2ccccn2)c2cc(Cl)ccc21
inactive: dose: 100.0 mg/kg/injection, schedule: Q01DX001 (ip), vehicle: saline sonified 112 % of control | dose: 200.0 mg/kg/injection, schedule: Q01DX001 (ip), vehicle: saline sonified 96 % of control | dose: 400.0 mg/kg/injection, schedule: Q01DX001 (ip), vehicle: saline sonified 103 % of control

O=[N+]([O-])c1ccc(S(=O)c2ccc([N+](=O)[O-])cc2)cc1
inactive: [10] 108 % of control | [7] 98 % of control | [11] 95 % of control | [8] 98 % of control | [12] 101 % of control | [9] 93 % of control
